Experimental data taken from US12351570B2 (MERCK PATENT GMBH, priority 2018, dated 2025).

Test system: MDA-MB-231 cells
Experiment: Extracellular lactate production inhibition after 4 h, MDA-MB-231
Conditions: Homo sapiens, MDA-MB-231
Method: Extracellular Lactate Production Inhibition after 4 h
Cells were plated in growth media supplemented with 10% FBS, followed by overnight recovery at 37° C., 5% CO2. […] Plates were then moved for 4 h incubation at 37° C., 5% CO2 with subsequent 20 μl media transfer to empty 384-well transparent plates. […] Plates were short-spun and measured kinetically in absorbance mode (530 nm, 12 min measurement time with 2-minute intervals between subsequent readouts at 30° C.). Differences in the signal between T8 min and T0min were normalized to vehicle (cells w/ 0.25% DMSO) and quasi-positive (LCIS buffer w/ 0.25% DMSO) controls and plotted against logarithmically-transformed test compound concentrations with fitting the 4-parameter model in GraphPad Prism software.

Structure (SMILES)	IC50 [nM]
COc1ccc(S(=O)(=O)Nc2ccc(I)cc2C#Cc2ccc(C(=O)O)nc2)c2ncccc12 [Compound 214, 5-{2-[5-iodo-2-(5-methoxyquinoline-8-sulfonamido)phenyl]ethynyl}pyridine-2-carboxylic acid]	1 to 10
COc1cc(C(=O)O)ncc1C#Cc1ccccc1N(C=O)Cc1ccc(-c2ccccc2OC)cc1 [Compound 215, 4-methoxy-5-(2-{2-[N-({2′-methoxy-[1,1′-biphenyl]-4-yl}methyl)formamido]phenyl}-ethynyl)pyridine-2-carboxylic acid]	1 to 10
COc1ccc(S(=O)(=O)Nc2ccccc2C#Cc2ccc(C(=O)NO)nc2)c2ncccc12 [Compound 216, N-hydroxy-5-{2-[2-(5-methoxyquinoline-8-sulfonamido)phenyl]ethynyl}pyridine-2-carboxamide]	100 to 1000
COc1ccc(C#Cc2ccc(C(=O)O)nc2)c(NS(=O)(=O)c2c(C)ccc3cccnc23)c1 [Compound 218, 5-{2-[4-methoxy-2-(7-methylquinoline-8-sulfonamido)phenyl]ethynyl}pyridine-2-carboxylic acid]	100 to 1000
COc1cc(C(=O)O)ncc1C#Cc1ccccc1NS(=O)(=O)N1CCC2CCCCC21 (stereo not drawn) [Compound 219, 4-methoxy-5-(2-{2-[(octahydro-1H-indole-1-sulfonyl)amino]phenyl}ethynyl)pyridine-2-carboxylic acid]	100 to 1000
O=CN(Cc1ccc(-c2ccccc2)nc1)c1ccccc1C#Cc1ccc(C(=O)O)nc1 [Compound 220, 5-[2-(2-{N-[(6-phenylpyridin-3-yl)methyl]formamido}phenyl)-ethynyl]pyridine-2-carboxylic acid]	100 to 1000
COc1cc(C(=O)O)ncc1C#Cc1ccccc1NS(=O)(=O)N1CCC[C@@H]2CCCC[C@H]21 [Compound 221, 5-[2-(2-{[(4a,8a-trans)-decahydro-quinoline-1-sulfonyl]amino}phenyl)-ethynyl]-4-methoxypyridine-2-carboxylic acid]	1 to 10
COc1cc(C(=O)O)ncc1C#Cc1ccccc1NS(=O)(=O)N1CCC(C)C2CCCCC21 (stereo not drawn) [Compound 222, 4-methoxy-5-[2-(2-{[(4-methyl-deca-hydroquinolin-1-yl)sulfonyl]amino}-phenyl)ethynyl]pyridine-2-carboxylic acid]	10 to 100
Cc1cc(C#Cc2ccccc2NS(=O)(=O)N2CCC[C@@H]3CCCC[C@H]32)cnc1C(=O)O [Compound 225, 5-[2-(2-{[(4a,8a-trans)-decahydro-quinoline-1-sulfonyl]amino}phenyl)-ethynyl]-3-methylpyridine-2-carboxylic acid]	10 to 100
COc1cc(C#Cc2ccccc2NS(=O)(=O)c2ccc(OC)c3cccnc23)ccc1C(=O)O [Compound 230, 2-methoxy-4-{2-[2-(5-methoxyquinoline-8-sulfonamido)phenyl]ethynyl}benzoic acid]	100 to 1000
Cc1ccc2cccnc2c1S(=O)(=O)Nc1ccc(Br)cc1C#Cc1cnc(C(=O)O)c2ccccc12 [Compound 233, 4-{2-[5-bromo-2-(7-methylquinoline-8-sulfonamido)phenyl]ethynyl}isoquinoline-1-carboxylic acid]	10 to 100
COc1ccc(S(=O)(=O)Nc2ccc(Br)cc2C#Cc2cnc(C(=O)O)c3ccccc23)c2ncccc12 [Compound 235, 4-{2-[5-bromo-2-(5-methoxyquinoline-8-sulfonamido)phenyl]ethynyl}isoquinoline-1-carboxylic acid]	1 to 10
CNc1cc(C#Cc2cc(Cl)ccc2NS(=O)(=O)c2c(C)ccc3cccnc23)cnc1C(=O)O [Compound 237, 5-{2-[5-chloro-2-(7-methylquinoline-8-sulfonamido)phenyl]ethynyl}-3-(methylamino)pyridine-2-carboxylic acid]	1 to 10
COc1ccc(S(=O)(=O)Nc2ccc(Cl)cc2C#Cc2ccc(C(=O)N(C)C)nc2)c2ncccc12 [Compound 239, 5-{2-[5-chloro-2-(5-methoxyquinoline-8-sulfonamido)phenyl]ethynyl}-N,N-dimethylpyridine-2-carboxamide]	1000 to 100000
COc1cc(C(=O)O)ncc1C#Cc1ccccc1NS(=O)(=O)c1ccc(OC)c(C)c1C [Compound 241, 4-methoxy-5-{2-[2-(4-methoxy-2,3-dimethylbenzenesulfonamido)-phenyl]ethynyl}pyridine-2-carboxylic acid]	10 to 100
COc1cc(C(=O)O)ncc1C#Cc1cc(Cl)ccc1NS(=O)(=O)c1ccc(OC)c(C)c1C [Compound 243, 5-{2-[5-chloro-2-(4-methoxy-2,3-dimethylbenzenesulfonamido)-phenyl]ethynyl}-4-methoxypyridine-2-carboxylic acid]	1 to 10
COc1ccc(NS(=O)(=O)c2c(C)ccc3cccnc23)c(C#Cc2ccc(C(=O)O)nc2)c1 [Compound 247, 5-{2-[5-methoxy-2-(7-methylquinoline-8-sulfonamido)phenyl]ethynyl}pyridine-2-carboxylic acid]	10 to 100

Second part, the compound after the results:

IC50 [nM]	Structure (SMILES)
1000 to 100000	COc1cc(C(=O)N(C)C)ncc1C#Cc1ccccc1NS(=O)(=O)c1ccc(OC)c2cccnc12 [Compound 223, 4-methoxy-5-{2-[2-(5-methoxyquinoline-8-sulfonamido)phenyl]ethynyl}-N,N-dimethylpyridine-2-carboxamide]
100 to 1000	COc1cc(C(=O)NO)ncc1C#Cc1ccccc1NS(=O)(=O)c1ccc(OC)c2cccnc12 [Compound 224, N-hydroxy-4-methoxy-5-{2-[2-(5-methoxyquinoline-8-sulfonamido)phenyl-]ethynyl}pyridine-2-carboxamide]
10 to 100	Cc1ccc2cccnc2c1S(=O)(=O)Nc1ccccc1C#Cc1cnc(C(=O)O)cc1-c1ccccc1 [Compound 226, 5-{2-[2-(7-methylquinoline-8-sulfonamido)phenyl]ethynyl}-4-phenylpyridine-2-carboxylic acid]
10 to 100	Cn1c2ccccc2c2cc(S(=O)(=O)Nc3ccccc3C#Cc3ccc(C(=O)O)nc3)ccc21 [Compound 227, 5-{2-[2-(9-methyl-9H-carbazole-3-sulfonamido)phenyl]ethynyl}pyridine-2-carboxylic acid]
10 to 100	CC1CCN(S(=O)(=O)Nc2ccccc2C#Cc2ccc(C(=O)O)nc2)C2CCCCC12 (stereo not drawn) [Compound 228, 5-[2-(2-{[(4-methyl-decahydroquinolin-1-yl)sulfonyl]amino}phenyl)ethynyl]pyridine-2-carboxylic acid]
1000 to 100000	Cc1ccc2cccnc2c1S(=O)(=O)Nc1ccc(N)cc1C#Cc1ccc(C(=O)O)nc1 [Compound 231, 5-{2-[5-amino-2-(7-methylquinoline-8-sulfonamido)phenyl]ethynyl}pyridine-2-carboxylic acid]
100 to 1000	CNc1cc(C#Cc2ccccc2NS(=O)(=O)c2ccc(OC)c3cccnc23)ccc1C(=O)O [Compound 232, 4-{2-[2-(5-methoxyquinoline-8-sulfonamido)phenyl]ethynyl}-2-(methylamino)benzoic acid]
10 to 100	Cc1ccc2cccnc2c1S(=O)(=O)Nc1ccc(Cl)cc1C#Cc1cnc(C(=O)O)c2ccccc12 [Compound 234, 4-{2-[5-chloro-2-(7-methylquinoline-8-sulfonamido)phenyl]ethynyl}isoquinoline-1-carboxylic acid]
10 to 100	COc1ccc(S(=O)(=O)Nc2ccc(Cl)cc2C#Cc2cnc(C(=O)O)c3ccccc23)c2ncccc12 [Compound 236, 4-{2-[5-chloro-2-(5-methoxyquinoline-8-sulfonamido)phenyl]ethynyl}isoquinoline-1-carboxylic acid]
1000 to 100000	COc1ccc(S(=O)(=O)Nc2ccc(Br)cc2C#Cc2ccc(C(=O)N(C)C)nc2)c2ncccc12 [Compound 238, 5-{2-[5-bromo-2-(5-methoxyquinoline-8-sulfonamido)phenyl]ethynyl}-N,N-dimethylpyridine-2-carboxamide]
1 to 10	CNc1cc(C#Cc2cc(Cl)ccc2NS(=O)(=O)c2ccc(OC)c3cccnc23)cnc1C(=O)O [Compound 242, 5-{2-[5-chloro-2-(5-methoxyquinoline-8-sulfonamido)phenyl]ethynyl}-3-(methyl-amino)pyridine-2-carboxylic acid]
10 to 100	COC(=O)c1ccc(C#Cc2cc([N+](=O)[O-])ccc2NS(=O)(=O)c2c(C)ccc3cccnc23)cn1 [Compound 244, methyl 5-{2-[2-(7-methylquinoline-8-sulfonamido)-5-nitrophenyl]ethynyl}-pyridine-2-carboxylate]
1000 to 100000	COc1ccc(S(=O)(=O)Nc2ccccc2C#Cc2cnc3c(c2)CN(C)C3=O)c2ncccc12 [Compound 245, 5-methoxy-N-[2-(2-{6-methyl-7-oxo-5H,6H,7H-pyrrolo[3,4-b]pyridin-3-yl}ethynyl)phenyl]quinoline-8-sulfonamide]
1000 to 100000	CNc1cc(C#Cc2ccccc2NS(=O)(=O)c2ccc(OC)c3cccnc23)cnc1C(=O)N(C)C [Compound 246, 5-{2-[2-(5-methoxyquinoline-8-sulfonamido)phenyl]ethynyl}-N,N-dimethyl-3-(methylamino)pyridine-2-carboxamide]
100 to 1000	Cc1ccc2cccnc2c1S(=O)(=O)Nc1ccc(N(C)C)cc1C#Cc1ccc(C(=O)O)nc1 [Compound 248, 5-{2-[5-(dimethylamino)-2-(7-methylquinoline-8-sulfonamido)phenyl]ethynyl}pyridine-2-carboxylic acid]
1000 to 100000	O=C(O)c1ccc(C#Cc2ccccc2NS(=O)(=O)c2ccc3c(c2)OCCO3)cc1 [Compound 250, 4-[2-(2,3-Dihydro-benzo[1,4]dioxine-6-sulfonylamino)-phenylethynyl]-benzoic acid]
1000 to 100000	O=C(O)c1ccc(C#Cc2ccccc2NS(=O)(=O)c2cccc3c2OC(F)(F)O3)cc1 [Compound 251, 4-[2-(2,2-Difluoro-benzo[1,3]dioxole-4-sulfonylamino)-phenylethynyl]-benzoic acid]
1000 to 100000	COc1ccc(S(=O)(=O)Nc2ccccc2C#Cc2ccc(C(=O)NS(C)(=O)=O)cc2)c2ccccc12 [Compound 252, 4-Methoxy-naphthalene-1-sulfonic acid [2-(4-methanesulfonylaminocarbonyl-phenylethynyl)-phenyl]-amide]
1000 to 100000	COc1ccc(S(=O)(=O)Nc2ccccc2C#Cc2ccc(C(=O)NC#N)cc2)c2ccccc12 [Compound 253, N-cyano-4-{2-[2-(4-methoxy-naphthalene-1-sulfonamido)phenyl]-ethynyl}benzamide]
